The target of this assay is T1, purified bovine lung membrane-bound aminopeptidase P (Bos taurus, UniProt E1B735).
T1 construct: from tissue; host or cells: bovine lung
T1 sequence (E1B735 22-673): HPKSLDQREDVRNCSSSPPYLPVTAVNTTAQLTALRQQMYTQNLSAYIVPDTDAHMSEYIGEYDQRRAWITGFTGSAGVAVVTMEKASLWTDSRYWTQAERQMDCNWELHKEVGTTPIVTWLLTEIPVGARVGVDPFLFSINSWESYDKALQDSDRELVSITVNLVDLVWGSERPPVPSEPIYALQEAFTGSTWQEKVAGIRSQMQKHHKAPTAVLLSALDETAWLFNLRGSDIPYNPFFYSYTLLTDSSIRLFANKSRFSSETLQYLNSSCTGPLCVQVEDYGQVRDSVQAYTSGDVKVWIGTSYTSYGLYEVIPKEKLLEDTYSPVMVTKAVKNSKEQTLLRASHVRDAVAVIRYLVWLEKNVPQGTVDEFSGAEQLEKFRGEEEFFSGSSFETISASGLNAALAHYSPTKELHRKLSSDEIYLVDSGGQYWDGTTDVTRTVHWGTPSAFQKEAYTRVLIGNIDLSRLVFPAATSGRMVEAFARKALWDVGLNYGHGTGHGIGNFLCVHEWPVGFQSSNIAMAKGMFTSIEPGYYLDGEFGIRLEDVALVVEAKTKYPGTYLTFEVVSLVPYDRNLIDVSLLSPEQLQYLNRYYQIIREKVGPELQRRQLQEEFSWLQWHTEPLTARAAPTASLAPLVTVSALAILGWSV
Briefly: Aminopeptidase P inhibition, release of arginine from Arg-Pro-Pro (fluorescent assay). The class given is biochemical. The procedure: The IC50 of the compound of the present invention in relation to aminopeptidase P was also determined. […] The specificity of the compound of the present invention for other aminopeptidases was similarly determined as described in the Experimental Procedures herein. […] The following enzymes had IC50 values>800 μM: aminopeptidase A, angiotensin converting enzyme, dipeptidyl-peptidase I-like activity, bestatin-sensitive/amastatin-insensitive membrane dipeptidase (29), microsomal dipeptidase, endopeptidase 24.11, endopeptidase 24.15, and prolyl oligopeptidase.
Enzymes--Membrane-bound aminopeptidase P was purified to homogeneity from bovine lung (14) and from rat lung. Partially purified membrane-bound aminopeptidase P from human lung was obtained by treatment of lung microsomes with phosphatidylinositol-specific phospholipase C (B. thuringiensis) (ICN, Costa Mesa, Calif.) followed by centrifugation as described previously (14). Membrane dipeptidase was purified from rat lung microsomes (manuscript in preparation). Recombinant E. coli aminopeptidase P (22) and purified lamb kidney prolyl oligopeptidase (23) were generally supplied by Dr. Tadashi Yoshimoto (Nagasaki University). Purified porcine kidney prolidase and purified porcine kidney aminopeptidase M was obtained from Sigma (St. Louis, Mo.).
Enzyme Kinetics--Aminopeptidase P activity was determined by measuring the release of arginine from Arg-Pro-Pro by a fluorescent assay described previously (14). […] Each mixture was run in duplicate. Aliquots were removed from each incubation mixture at various times and assayed for the amount of arginine present to determine the reaction velocity. In general, reaction velocities were calculated from data representing less than 20% cleavage of substrate. Ki and Ki ' (=αKi) were determined from plots of 1/v versus concentration of inhibitor "i" (26) and S/v versus concentration of inhibitor "i" (27), respectively. These parameters were also determined from the slope replot and 1/v-intercept replot, respectively, of the 1/v versus 1/S plot (28). See e.g., FIG. 1B. The values from the two treatments of the data were averaged for each experiment. Experiments for each enzyme preparation were performed twice and the results averaged.

Each structure is given as a SMILES string. pIC50, pKi: −log10 of the molar value.

Regarding `C[C@H](NC(=O)[C@@H]1CCCN1C(=O)[C@@H]1CCCN1C(=O)[C@@H](O)[C@H](N)Cc1ccccc1)C(N)=O` [apstatin, N-[(2S, 3R)-3-amino-2-hydroxy-4-phenylbutanoyl]-L-prolyl-L-prolyl-Lalaninamide], under “bovine lung aminopeptidase P, cleavage of 0.5 μM Arg-Pro-Pro in 0.1M Hepes, pH 8.0 at 37° C.”, the pIC50 is 5.03. The type of inhibition entry (bovine lung aminopeptidase P, slope and 1/v-axis intercept replots) is reported as “linear mixed-type”. Besides, under “bovine lung, purified membrane-bound form”, the “α (αKi = equilibrium constant for enzyme-inhibitor binding at infinite substrate concentration)” value is on record as 4.2. The molecule also had a pKi (bovine lung, purified membrane-bound form, substrate Arg-Pro-Pro, 0.1 M Hepes pH 8.0, 39° C.) of 5.11.

Usually pIC50 stands for the negative decadic logarithm of the IC50, by convention in mol/L. A higher pIC50 goes with a low IC50. By pKi is commonly meant the Ki on a negative log10 scale, so that one unit is a factor of ten.

Source of the values: patent publication US5656603A (Loyola University of Chicago, priority 1995, dated 1997).
